Data taken from ChEMBL document CHEMBL1158997, “New Stemodane Diterpenes from Stemodia maritima” (1992).

Test system: Human alphaherpesvirus 1
Assay: Antiviral activity against HSV1 assessed as plaque reduction at 30 to 200 […]
Format: functional
Parameters: scale not given: the % may be the effect or the level left

CC1(C)C[C@H](O)C[C@@]2(C)[C@H]1CC[C@H]1C[C@H]3C[C@]12CC[C@]3(C)O[C@@H]1O[C@H](CO)[C@@H](O)[C@H](O)[C@H]1O [STEMODINOSIDE B]
Activity: 77%
